Measurements published in patent publication US20260028365A1 (BIOGEN MA INC., priority 2022, published 2026).
pIC50: −log10 of the molar value. Like-named read-outs stand apart in the source and are kept apart here.

Legend:
JH2 domain of human Tyk2 = JH2 domain of human Tyk2 (Homo sapiens (Human), UniProt P29597); assay: JH2 Biochemical Assay (TR-FRET probe displacement); format: binding
Description: The inhibitory potency of compounds of the disclosure against the kinase activity of recombinantly generated JH2 domain of human Tyk2 was evaluated in a plate-based assay using a TR-FRET assay platform. Briefly, 2 nM of recombinant JH2 domain [10×His-tagged TYK2 JH2 domain (amino acid 575-876)] was combined with 2 nM probe ((S)-6-amino-9-(2-carboxy-4-((1-(3-(8-methyl-5-(methylamino)-8H-imidazo[4,5-d]thiazolo[5,4-b]pyridin-2-yl)phenyl)ethyl)carbamoyl)phenyl)-3-iminio-5-sulfo-3H-xanthene-4-sulfonate), 0.1 nM Tb-labeled anti-His antibody, and compounds of disclosure for 60 minutes. Compounds are tested at either 10 μM or 1 μM top concentration, 10 points of 3-fold dilution. The TR-FRET signal inversely correlates to the amount of probe displaced by compounds and signal was calculated by taking the ratio of fluorescence at 520 nm and 495 nm. The data was normalized and the percent activity versus log concentration of compound was fitted with a 4-parameter logistic model to generate IC50 curves.

Tyk2 = Tyk2 (Homo sapiens (Human), UniProt P29597); assay: pSTAT4 Cell Assay (MSD, NK92 cells); format: cell-based
Sequence of Tyk2 (P29597 whole entry, the tested form may be a part): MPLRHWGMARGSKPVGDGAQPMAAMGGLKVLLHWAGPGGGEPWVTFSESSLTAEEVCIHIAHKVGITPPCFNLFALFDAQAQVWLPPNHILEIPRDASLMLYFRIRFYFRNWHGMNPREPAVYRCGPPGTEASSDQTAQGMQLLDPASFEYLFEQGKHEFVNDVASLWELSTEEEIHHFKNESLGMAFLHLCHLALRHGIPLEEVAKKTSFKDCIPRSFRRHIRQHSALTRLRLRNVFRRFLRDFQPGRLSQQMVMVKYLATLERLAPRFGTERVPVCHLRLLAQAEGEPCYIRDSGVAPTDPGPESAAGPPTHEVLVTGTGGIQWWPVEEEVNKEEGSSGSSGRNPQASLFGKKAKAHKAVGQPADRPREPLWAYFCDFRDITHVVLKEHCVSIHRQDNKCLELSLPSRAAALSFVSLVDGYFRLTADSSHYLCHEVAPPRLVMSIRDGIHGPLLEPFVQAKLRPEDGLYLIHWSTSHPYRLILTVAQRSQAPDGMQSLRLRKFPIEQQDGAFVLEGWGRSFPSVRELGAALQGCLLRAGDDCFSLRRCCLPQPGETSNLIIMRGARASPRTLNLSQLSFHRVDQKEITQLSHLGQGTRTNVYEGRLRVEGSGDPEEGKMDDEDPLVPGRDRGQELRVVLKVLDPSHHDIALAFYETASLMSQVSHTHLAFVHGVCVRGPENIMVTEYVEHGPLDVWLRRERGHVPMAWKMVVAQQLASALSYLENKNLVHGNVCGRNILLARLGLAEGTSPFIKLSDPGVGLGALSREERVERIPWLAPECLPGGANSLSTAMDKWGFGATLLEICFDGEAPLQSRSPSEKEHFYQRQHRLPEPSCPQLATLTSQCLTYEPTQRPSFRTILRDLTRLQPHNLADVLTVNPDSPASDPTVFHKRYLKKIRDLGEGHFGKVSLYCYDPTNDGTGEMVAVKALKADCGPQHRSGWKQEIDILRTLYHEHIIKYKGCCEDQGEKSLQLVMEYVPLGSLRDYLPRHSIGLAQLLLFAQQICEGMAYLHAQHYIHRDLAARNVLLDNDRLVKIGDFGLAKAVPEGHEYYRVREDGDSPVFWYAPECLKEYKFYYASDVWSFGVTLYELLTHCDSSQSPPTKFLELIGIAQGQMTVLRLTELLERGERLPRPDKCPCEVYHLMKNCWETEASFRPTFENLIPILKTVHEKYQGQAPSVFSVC

[1] = TR-FRET probe displacement, JH2 domain of human Tyk2
[2] = JH2 domain of human Tyk2, TR-FRET probe displacement

Sequence of JH2 domain of human Tyk2 (P29597 575-876): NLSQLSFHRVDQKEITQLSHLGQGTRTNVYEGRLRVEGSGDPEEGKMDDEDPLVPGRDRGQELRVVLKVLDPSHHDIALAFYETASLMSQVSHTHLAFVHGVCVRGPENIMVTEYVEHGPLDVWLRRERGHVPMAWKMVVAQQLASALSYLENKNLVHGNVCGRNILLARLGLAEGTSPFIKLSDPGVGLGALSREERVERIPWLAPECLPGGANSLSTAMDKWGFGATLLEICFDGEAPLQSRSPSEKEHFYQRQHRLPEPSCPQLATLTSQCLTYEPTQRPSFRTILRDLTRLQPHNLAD

SMILES | pIC50 (Tyk2; MSD) | also measured
CC(=O)Nc1cc(Nc2cc(C)nc(C(C)(F)F)n2)c(OCC2(CF)CCOCC2)cn1 [Example 340, N-(4-((2-(1,1-difluoroethyl)-6-methylpyrimidin-4-yl)amino)-5-((4-(fluoromethyl)tetrahydro-2H-pyran-4-yl)methoxy)pyridin-2-yl)acetamide] |  | pIC50 (JH2 domain of human Tyk2; [1]): 7.00 to 8.00
CC(=O)Nc1cc(Nc2cc(C)nc(C(C)(F)F)n2)c(-c2cc(CN3CCOCC3)n(C)n2)cn1 [Example 739, N-(4-((2-(1,1-difluoroethyl)-6-methylpyrimidin-4-yl)amino)-5-(1-methyl-5-(morpholinomethyl)-1H-pyrazol-3-yl)pyridin-2-yl)acetamide] |  | pIC50 (JH2 domain of human Tyk2; [2]): ≥ 8.00
CC(=O)Nc1cc(Nc2cc(C)nc(C(C)(F)F)n2)c(-c2cc(F)ccn2)cn1 [Example 624, N-(4′-((2-(1,1-difluoroethyl)-6-methylpyrimidin-4-yl)amino)-4-fluorO[2,3′-bipyridin]-6′-yl)acetamide] |  | pIC50 (JH2 domain of human Tyk2; [2]): ≥ 8.00
CC(=O)Nc1cc(Nc2cc(C)nc(C(C)(F)F)n2)c(OCCOC2CC2)cn1 [Example 316, N-(5-(2-cyclopropoxyethoxy)-4-((2-(1,1-difluoroethyl)-6-methylpyrimidin-4-yl)amino)pyridin-2-yl)acetamide] |  | pIC50 (JH2 domain of human Tyk2; [1]): ≥ 8.00
CC(=O)Nc1cc(Nc2cc(C)nc(C(C)(F)F)n2)c(-c2cc(CN3CCOCC3)ccn2)cn1 [Example 806, N-(4′-((2-(1,1-difluoroethyl)-6-methylpyrimidin-4-yl)amino)-4-(morpholinomethyl)-[2,3′-bipyridin]-6′-yl)acetamide] |  | pIC50 (JH2 domain of human Tyk2; TR-FRET probe displacement, JH2 domain): ≥ 8.00
CC(=O)Nc1cc(Nc2cc(C)nc(C(C)(F)F)n2)c(-n2cnc(C)n2)cn1 [Example 735, N-(4-((2-(1,1-difluoroethyl)-6-methylpyrimidin-4-yl)amino)-5-(3-methyl-1H-1,2,4-triazol-1-yl)pyridin-2-yl)acetamide] |  | pIC50 (JH2 domain of human Tyk2; [2]): 7.00 to 8.00
COc1cnc(NC(C)=O)cc1Nc1cc(OC2CC2)nc(C(F)(F)F)n1 [Example 437, N-(4-((6-cyclopropoxy-2-(trifluoromethyl)pyrimidin-4-yl)amino)-5-methoxypyridin-2-yl)acetamide] |  | pIC50 (JH2 domain of human Tyk2; [2]): 7.00 to 8.00
CCc1cc(Nc2cc(NC(C)=O)ncc2-c2ccc(OC)nn2)nc(C(C)(F)F)n1 [Example 220, N-(4-((2-(1,1-difluoroethyl)-6-ethylpyrimidin-4-yl)amino)-5-(6-methoxypyridazin-3-yl)pyridin-2-yl)acetamide] |  | pIC50 (JH2 domain of human Tyk2; [1]): ≥ 8.00
CC(=O)Nc1cc(Nc2cc(C)nc(C(C)(F)F)n2)c(N(C)C)cn1 [Example 725, N-(4-((2-(1,1-difluoroethyl)-6-methylpyrimidin-4-yl)amino)-5-(dimethylamino)pyridin-2-yl)acetamide] |  | pIC50 (JH2 domain of human Tyk2; [2]): 6.00 to 7.00
CCOc1cnc(NC(=O)C2CC2)cc1Nc1cc(C)nc(C(C)(F)F)n1 [Example 28, N-(4-((2-(1,1-difluoroethyl)-6-methylpyrimidin-4-yl)amino)-5-ethoxypyridin-2-yl)cyclopropanecarboxamide] |  | pIC50 (JH2 domain of human Tyk2; [1]): 7.00 to 8.00
CC(=O)Nc1cc(Nc2cc(C)nc(C(C)(F)F)n2)c(OCC2(C)CCCCO2)cn1 (stereo not drawn) [Example 435, N-(4-((2-(1,1-difluoroethyl)-6-methylpyrimidin-4-yl)amino)-5-((2-methyltetrahydro-2H-pyran-2-yl)methoxy)pyridin-2-yl)acetamide] |  | pIC50 (JH2 domain of human Tyk2; [2]): ≥ 8.00
CC(=O)Nc1cc(Nc2cc(C)nc(C(C)(F)F)n2)c(CCCN(C)C)cn1 [Example 151, N-(4-((2-(1,1-difluoroethyl)-6-methylpyrimidin-4-yl)amino)-5-(3-(dimethylamino)propyl)pyridin-2-yl)acetamide] |  | pIC50 (JH2 domain of human Tyk2; [1]): 6.00 to 7.00
COc1cnc(NC(C)=O)cc1Nc1cc(-c2cnc(C)s2)nc(C(C)(F)F)n1 [Example 387, N-(4-((2-(1,1-difluoroethyl)-6-(2-methylthiazol-5-yl)pyrimidin-4-yl)amino)-5-methoxypyridin-2-yl)acetamide] | ≥ 8.00 | 
CC(=O)Nc1cc(Nc2ccnc(C(C)(F)F)n2)c(OC2CCC2)cn1 [Example 7, N-(5-cyclobutoxy-4-((2-(1,1-difluoroethyl)pyrimidin-4-yl)amino)pyridin-2-yl)acetamide] | 6.00 to 7.00 | 
CC(=O)Nc1cc(Nc2cc(C)nc(C(C)(F)F)n2)c(OCC2CCN(C)C2)cn1 (stereo not drawn) [Example 480, N-(4-((2-(1,1-difluoroethyl)-6-methylpyrimidin-4-yl)amino)-5-((1-methylpyrrolidin-3-yl)methoxy)pyridin-2-yl)acetamide] | 7.00 to 8.00 | 
CC(=O)Nc1cc(Nc2cc(C)nc(C(C)(F)F)n2)c(OCc2csc(C)n2)cn1 [Example 117, N-(4-((2-(1,1-difluoroethyl)-6-methylpyrimidin-4-yl)amino)-5-((2-methylthiazol-4-yl)methoxy)pyridin-2-yl)acetamide] | ≥ 8.00 | 
CCN1CCn2nc(-c3cnc(NC(C)=O)cc3Nc3cc(C)nc(C45COC(C4)C5)n3)cc2C1 [Example 544, N-(4-((2-(2-oxabicyclo[2.1.1]hexan-4-yl)-6-methylpyrimidin-4-yl)amino)-5-(5-ethyl-4,5,6,7-tetrahydropyrazolo[1,5-a]pyrazin-2-yl)pyridin-2-yl)acetamide] | ≥ 8.00 | 
CC(=O)Nc1cc(Nc2cc(C)nc(C(C)(F)F)n2)c(-c2cc3n(n2)CCNC3=O)cn1 [Example 223, N-(4-((2-(1,1-difluoroethyl)-6-methylpyrimidin-4-yl)amino)-5-(4-oxo-4,5,6,7-tetrahydropyrazolo[1,5-a]pyrazin-2-yl)pyridin-2-yl)acetamide] | 7.00 to 8.00 | 
CC(=O)Nc1cc(Nc2cc(C)nc(C(C)(F)F)n2)c(OCC(=O)N(C)C)cn1 [Example 103, 2-((6-acetamido-4-((2-(1,1-difluoroethyl)-6-methylpyrimidin-4-yl)amino)pyridin-3-yl)oxy)-N,N-dimethylacetamide] | 6.00 to 7.00 | 
CC(=O)Nc1cc(Nc2cc(C)nc(C(C)(F)F)n2)c(-c2ncc3c(n2)COC3)cn1 [Example 678, N-(4-((2-(1,1-difluoroethyl)-6-methylpyrimidin-4-yl)amino)-5-(5,7-dihydrofuro[3,4-d]pyrimidin-2-yl)pyridin-2-yl)acetamide] | 7.00 to 8.00 | 
CC(=O)Nc1cc(Nc2cc(C)nc(C(C)(F)F)n2)c(-c2cc3n(n2)CC(C)N(C)C3)cn1 (stereo not drawn) [Example 548, N-(4-((2-(1,1-difluoroethyl)-6-methylpyrimidin-4-yl)amino)-5-(5,6-dimethyl-4,5,6,7-tetrahydropyrazolo[1,5-a]pyrazin-2-yl)pyridin-2-yl)acetamide] | ≥ 8.00 | 
CCc1cc(Nc2cc(NC(C)=O)ncc2-c2ccc(F)c(CN3C[C@H]4C[C@@H]3CO4)n2)nc(C(C)(F)F)n1 [Example 908, N-(6-(((1R,4R)-2-oxa-5-azabicyclo[2.2.1]heptan-5-yl)methyl)-4′-((2-(1,1-difluoroethyl)-6-ethylpyrimidin-4-yl)amino)-5-fluoro-[2,3′-bipyridin]-6′-yl)acetamide] |  | pIC50 (Tyk2): ≥ 8.00
CC(=O)Nc1cc(Nc2cc(C)nc(C(C)(F)F)n2)c(OCCN2CCN(C)CC2)cn1 [Example 106, N-(4-((2-(1,1-difluoroethyl)-6-methylpyrimidin-4-yl)amino)-5-(2-(4-methylpiperazin-1-yl)ethoxy)pyridin-2-yl)acetamide] | 7.00 to 8.00 | 
CC(=O)Nc1cc(Nc2cc(C)nc(C(C)(F)F)n2)c(OCc2nc(C)cs2)cn1 [Example 112, N-(4-((2-(1,1-difluoroethyl)-6-methylpyrimidin-4-yl)amino)-5-((4-methylthiazol-2-yl)methoxy)pyridin-2-yl)acetamide] | 7.00 to 8.00 | 
CC(=O)Nc1cc(Nc2cc(C)nc(C(C)(F)F)n2)c(-c2cccc(C3CCCO3)n2)cn1 (stereo not drawn) [Example 639, N-(4′-((2-(1,1-difluoroethyl)-6-methylpyrimidin-4-yl)amino)-6-(tetrahydrofuran-2-yl)-[2,3′-bipyridin]-6′-yl)acetamide] | ≥ 8.00 | 
CC(=O)Nc1cc(Nc2cc(C)nc(C(C)(F)F)n2)c(OCc2cnccn2)cn1 [Example 126, N-(4-((2-(1,1-difluoroethyl)-6-methylpyrimidin-4-yl)amino)-5-(pyrazin-2-ylmethoxy)pyridin-2-yl)acetamide] | 7.00 to 8.00 | 
COc1cc(COc2cnc(NC(C)=O)cc2Nc2cc(C)nc(C(C)(F)F)n2)ccn1 [Example 114, N-(4-((2-(1,1-difluoroethyl)-6-methylpyrimidin-4-yl)amino)-5-((2-methoxypyridin-4-yl)methoxy)pyridin-2-yl)acetamide] | 7.00 to 8.00 | 
CCC1(COc2cnc(NC(C)=O)cc2Nc2cc(C)nc(C(C)(F)F)n2)COC1 [Example 109, N-(4-((2-(1,1-difluoroethyl)-6-methylpyrimidin-4-yl)amino)-5-((3-ethyloxetan-3-yl)methoxy)pyridin-2-yl)acetamide] | 7.00 to 8.00 | 
CC(=O)Nc1cc(Nc2cc(C)nc(C3CCOC3)n2)c(-c2cc3n(n2)CCN(C)C3)cn1 (stereo not drawn) [Example 547, N-(4-((6-methyl-2-(tetrahydrofuran-3-yl)pyrimidin-4-yl)amino)-5-(5-methyl-4,5,6,7-tetrahydropyrazolo[1,5-a]pyrazin-2-yl)pyridin-2-yl)acetamide] | ≥ 8.00 | 
CCc1cc(Nc2cc(NC(C)=O)ncc2-c2cc3n(n2)CCN(C)C3)nc(C(C)(F)F)n1 [Example 721, N-(4-((2-(1,1-difluoroethyl)-6-ethylpyrimidin-4-yl)amino)-5-(5-methyl-4,5,6,7-tetrahydropyrazolo[1,5-a]pyrazin-2-yl)pyridin-2-yl)acetamide] | ≥ 8.00 | 
